# Data taken from PMC3909471 (European journal of medicinal chemistry, 2013).
# Key:
# [1] = molecular target: human CB2 cannabinoid receptor (Homo sapiens, UniProt P34972); assay: [3H]CP55,940 radioligand competition binding, human CB2
# [2] = molecular target: rat CB1 cannabinoid receptor (Rattus norvegicus, UniProt P20272); assay: [3H]CP55,940 radioligand competition binding, rat CB1; conditions: removal of the methyl moiety from the N-methylpiperazine analogue
# human CB2 receptors [3] = molecular target: T1, human CB2 receptors (Homo sapiens, UniProt P34972); assay: Effect on CP55,940-induced CB2 internalization in hCB2 cells; type: cell-based; conditions: 10 nM CP55,940 cotreated with 3 uM compound
# [4] = test system: L5 and L6 spinal nerve ligation neuropathic pain model in rats; assay: Spinal nerve ligation neuropathic pain model, von Frey paw withdrawal threshold; type: in vivo, rat; conditions: intraperitoneally 5 – 20 mg/kg
# human CB2 receptors [5] = molecular target: T1, human CB2 receptors; assay: hCB2 receptor internalization; type: cell-based; conditions: at 10 μM as printed in text
# T1 sequence (P34972 whole entry): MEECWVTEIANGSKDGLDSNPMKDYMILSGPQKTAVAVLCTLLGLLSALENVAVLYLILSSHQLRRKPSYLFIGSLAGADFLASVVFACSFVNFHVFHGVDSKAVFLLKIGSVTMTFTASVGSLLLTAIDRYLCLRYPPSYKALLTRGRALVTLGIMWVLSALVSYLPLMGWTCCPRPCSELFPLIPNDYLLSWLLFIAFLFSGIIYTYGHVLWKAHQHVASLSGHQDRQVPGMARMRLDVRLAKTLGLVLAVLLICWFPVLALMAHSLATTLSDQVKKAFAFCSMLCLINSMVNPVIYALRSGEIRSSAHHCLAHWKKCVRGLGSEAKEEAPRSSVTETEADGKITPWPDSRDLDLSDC
# Chain of human CB2 cannabinoid receptor (P34972 whole entry): as above
# Chain of rat CB1 cannabinoid receptor (P20272 whole entry): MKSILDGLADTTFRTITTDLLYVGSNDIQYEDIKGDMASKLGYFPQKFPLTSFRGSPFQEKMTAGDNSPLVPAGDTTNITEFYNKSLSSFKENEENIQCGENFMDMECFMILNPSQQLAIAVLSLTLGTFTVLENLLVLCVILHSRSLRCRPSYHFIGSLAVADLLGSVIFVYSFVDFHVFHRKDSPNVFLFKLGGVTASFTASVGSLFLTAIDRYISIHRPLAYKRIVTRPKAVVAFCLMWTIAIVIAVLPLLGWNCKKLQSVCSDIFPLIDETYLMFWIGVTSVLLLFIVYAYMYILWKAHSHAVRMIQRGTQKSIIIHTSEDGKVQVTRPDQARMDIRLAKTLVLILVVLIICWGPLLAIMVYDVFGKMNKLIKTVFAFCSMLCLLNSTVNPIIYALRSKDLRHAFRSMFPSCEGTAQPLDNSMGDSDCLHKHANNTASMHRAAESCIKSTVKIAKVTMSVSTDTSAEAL
structure (smiles),measurement,setting,value
"CCCCCn1c2ccccc2c2cc(C(=O)N3CCN(C)CC3)ccc21 [Compound 9, (4-Methylpiperazin-1-yl)(9-pentyl-9H-carbazol-3-yl)methanone]",Improvement of CB2 selectivity,[1]; compared to the piperidine analogue 4,3 fold
"CCCCCn1c2ccccc2c2cc(C(=O)N3CCNCC3)ccc21 [Compound 15, (9-Pentyl-9H-carbazol-3-yl)(piperazin-1-yl)methanone]",Decrease of CB1 affinity,[2],4 fold
"CCCCCn1c2ccccc2c2cc(C(=O)c3ccccc3)ccc21 [Compound 18, (9-Pentyl-9H-carbazol-3-yl)(phenyl)methanone]","Reduction of hCB2 internalization induced by CP55,940",human CB2 receptors [3],more than 50%
"CCCCCn1c2ccccc2c2cc(C(=O)NCC(C)(C)C)ncc21 [Compound 35, N-(2,2-dimethylpropyl)-9-pentyl-9H-pyrido[3,4-b]indole-3-carboxamide]","Reduction of hCB2 internalization induced by CP55,940",human CB2 receptors [3],more than 50%
"CS(=O)(=O)NCCCn1c2ccccc2c2cc(C(=O)N3CCCCC3)ccc21 [Compound 64, N-(3-(3-(Piperidine-1-carbonyl)-9H-carbazol-9-yl)propyl)methanesulfonamide]","Tactile allodynia (paw withdrawal threshold, von Frey filaments)",[4],significantly attenuated tactile allodynia in a dose-dependent manner
"O=C(c1ccc2c(c1)c1ccccc1n2Cc1ccncc1)N1CCCCC1 [Compound 74, Piperidin-1-yl(9-(pyridin-4-ylmethyl)-9H-carbazol-3-yl)methanone]",Improvement in CB2 selectivity,[1]; 4-methylpyridine replacing the 4-methyltetrahydropyran fragment (vs 69),4 fold
"CCCCCn1c2ccc(C(=O)N3CCCCC3)cc2c2ccc(OC)cc21 [Compound 81, (7-Methoxy-9-pentyl-9H-carbazol-3-yl)(piperidin-1-yl)methanone]",CB2 internalization,human CB2 receptors [5],failed to internalize CB2
same,"Reduction of hCB2 internalization induced by CP55,940",human CB2 receptors [3],"reduced compound CP55,940-induced internalization"
